# Laboratory results reported in PubChem BioAssay AID720673 (NMMLSC, 2013).
# Active and inactive are the calls of the source. No rule for the calls is given here.
# Molecular target: Botulinum neurotoxin type A light chain (Clostridium botulinum A ATCC 3502)
# Assay: inhibition of botulinum toxin A LC cleavage – biochemical, powder set 03, dose response (AID 720673)
# Settings: BoNT/A LC protease, multiplex microsphere substrate cleavage assay
row,Compound,EC50
1,CCCOC(=O)Nc1ccc2nc(-c3ccccc3)c(-c3ccccc3)nc2c1,> 20 µM (inactive)
2,Fc1ccc(-c2nc3nc(-c4cccc(F)c4)cn3nc2-c2ccc(F)cc2)cc1,8.6 µM
3,CCCCOC(=O)Nc1ccc2nc(-c3ccccc3)c(-c3ccccc3)nc2c1,> 20 µM (inactive)
4,COc1cccc(-c2cn3nc(-c4ccccc4)c(-c4ccccc4)nc3n2)c1,16.2 µM
5,CC(Oc1ccccc1)C(=O)Nc1ccc2nc(-c3ccccc3)c(-c3ccccc3)nc2c1 (configuration not stated),> 20 µM (inactive)
6,N#Cc1ccc(-c2cn3nc(-c4ccccc4)c(-c4ccccc4)nc3n2)cc1,> 20 µM (inactive)
7,COc1ccccc1-c1cn2nc(-c3ccc(F)cc3)c(-c3ccc(F)cc3)nc2n1,6.2 µM
8,CCOC(=O)Nc1ccc2nc(-c3ccccc3)c(-c3ccccc3)nc2c1,> 20 µM (inactive)
9,O=C(Nc1ccc2nc(-c3cccs3)c(-c3cccs3)nc2c1)C1CCCC1,> 20 µM (inactive)
10,COc1ccc(-c2cn3nc(-c4ccc(C)cc4)c(-c4ccc(C)cc4)nc3n2)c(OC)c1,9.5 µM
11,CCCS(=O)(=O)Nc1ccc2nc(-c3cccs3)c(-c3cccs3)nc2c1,> 20 µM (inactive)
12,O=C(Nc1ccc2nc(-c3ccccc3)c(-c3ccccc3)nc2c1)C1CCCC1,> 20 µM (inactive)
13,COc1ccc(-c2nc3nc(-c4ccc(C#N)cc4)cn3nc2-c2ccc(OC)cc2)cc1,2.4 µM
14,COc1ccc(-c2nc3nc(-c4ccc(OC(F)(F)F)cc4)cn3nc2-c2ccc(OC)cc2)cc1,4.2 µM
15,COc1ccc(-c2nc3nc(-c4ccccc4OC)cn3nc2-c2ccc(OC)cc2)cc1,8.9 µM
16,CC(=O)Nc1ccc2nc(-c3ccccc3)c(-c3ccccc3)nc2c1,> 20 µM (inactive)
17,CCCCOC(=O)Nc1ccc2nc(-c3cccs3)c(-c3cccs3)nc2c1,> 20 µM (inactive)
18,Fc1ccc(-c2cn3nc(-c4ccc(F)cc4)c(-c4ccc(F)cc4)nc3n2)cc1,6.7 µM
19,O=C(Nc1ccc2nc(-c3ccccc3)c(-c3ccccc3)nc2c1)NC1CCCC1,> 20 µM (inactive)
20,CCCOC(=O)Nc1ccc2nc(-c3cccs3)c(-c3cccs3)nc2c1,> 20 µM (inactive)
21,Clc1ccc(-c2cn3nc(-c4ccccc4)c(-c4ccccc4)nc3n2)c(Cl)c1,> 20 µM (inactive)

row,Compound,EC50
1,COc1ccccc1-c1cn2nc(-c3ccccc3)c(-c3ccccc3)nc2n1,10.9 µM
2,CC(C)CS(=O)(=O)Nc1ccc2nc(-c3cccs3)c(-c3cccs3)nc2c1,> 20 µM (inactive)
3,COc1ccc(-c2nc3nc(-c4cccc(OC)c4)cn3nc2-c2ccc(OC)cc2)cc1,14.7 µM
4,N#Cc1ccc(-c2cn3nc(-c4ccc(F)cc4)c(-c4ccc(F)cc4)nc3n2)cc1,> 20 µM (inactive)
5,COc1ccc(-c2cn3nc(-c4ccc(OC)cc4)c(-c4ccc(OC)cc4)nc3n2)cc1,5.7 µM
6,Cc1ccc(-c2nc3nc(-c4ccc(S(C)(=O)=O)cc4)cn3nc2-c2ccc(C)cc2)cc1,7.6 µM
7,COc1ccc(-c2cn3nc(-c4ccccc4)c(-c4ccccc4)nc3n2)c(OC)c1,13.2 µM
8,O=C(Nc1ccc2nc(-c3cccs3)c(-c3cccs3)nc2c1)C1CC1,> 20 µM (inactive)
9,COc1ccc(-c2cn3nc(-c4ccc(C)cc4)c(-c4ccc(C)cc4)nc3n2)cc1,5 µM
10,O=C(Nc1ccc2nc(-c3ccccc3)c(-c3ccccc3)nc2c1)C1CCC1,> 20 µM (inactive)
11,COc1ccc(-c2cn3nc(-c4ccc(F)cc4)c(-c4ccc(F)cc4)nc3n2)cc1,7.1 µM
12,Cc1ccc(-c2nc3nc(-c4ccc(C#N)cc4)cn3nc2-c2ccc(C)cc2)cc1,4.7 µM
13,Fc1cccc(-c2cn3nc(-c4ccccc4)c(-c4ccccc4)nc3n2)c1,> 20 µM (inactive)
14,COC(=O)Nc1ccc2nc(-c3cccs3)c(-c3cccs3)nc2c1,> 20 µM (inactive)
15,COc1ccc(-c2nc3nc(-c4ccc(F)cc4)cn3nc2-c2ccc(OC)cc2)cc1,4 µM
16,CC(C)CS(=O)(=O)Nc1ccc2nc(-c3ccccc3)c(-c3ccccc3)nc2c1,> 20 µM (inactive)
17,CCC(=O)Nc1ccc2nc(-c3cccs3)c(-c3cccs3)nc2c1,> 20 µM (inactive)
18,CCOC(=O)Nc1ccc2nc(-c3cccs3)c(-c3cccs3)nc2c1,> 20 µM (inactive)
19,O=S(=O)(Nc1ccc2nc(-c3ccccc3)c(-c3ccccc3)nc2c1)C1CC1,> 20 µM (inactive)
20,CC(C)(C)NC(=O)Nc1ccc2nc(-c3ccccc3)c(-c3ccccc3)nc2c1,> 20 µM (inactive)
21,Cc1ccc(-c2nc3nc(-c4ccc(OC(F)(F)F)cc4)cn3nc2-c2ccc(C)cc2)cc1,4 µM

row,Compound,EC50
1,CC(C)NC(=O)Nc1ccc2nc(-c3ccccc3)c(-c3ccccc3)nc2c1,> 20 µM (inactive)
2,COc1cccc(-c2cn3nc(-c4ccc(F)cc4)c(-c4ccc(F)cc4)nc3n2)c1,11.1 µM
3,Fc1ccc(-c2cn3nc(-c4ccccc4)c(-c4ccccc4)nc3n2)cc1,> 20 µM (inactive)
4,Cc1ccc(-c2cn3nc(-c4ccc(C)cc4)c(-c4ccc(C)cc4)nc3n2)cc1,4.7 µM
5,COc1ccc(-c2nc3nc(-c4ccc(OC)cc4OC)cn3nc2-c2ccc(OC)cc2)cc1,> 20 µM (inactive)
6,O=C(Nc1ccc2nc(-c3cccs3)c(-c3cccs3)nc2c1)OCc1ccccc1,10.6 µM
7,CC(C)NC(=O)Nc1ccc2nc(-c3cccs3)c(-c3cccs3)nc2c1,> 20 µM (inactive)
8,Cc1ccc(-c2nc3nc(-c4cccc(F)c4)cn3nc2-c2ccc(C)cc2)cc1,5.2 µM
9,O=C(Nc1ccc2nc(-c3ccccc3)c(-c3ccccc3)nc2c1)C1CCCCC1,> 20 µM (inactive)
10,COC(=O)Nc1ccc2nc(-c3ccccc3)c(-c3ccccc3)nc2c1,> 20 µM (inactive)
11,Cc1ccc(-c2cn3nc(-c4ccc(F)cc4)c(-c4ccc(F)cc4)nc3n2)cc1,7.7 µM
12,Fc1ccc(-c2nc3nc(-c4ccccc4)cn3nc2-c2ccc(F)cc2)cc1,11.1 µM
13,Cc1ccc(-c2nc3nc(-c4ccccc4)cn3nc2-c2ccc(C)cc2)cc1,7.4 µM
14,CCC(=O)Nc1ccc2nc(-c3ccccc3)c(-c3ccccc3)nc2c1,> 20 µM (inactive)
15,COc1ccc(-c2nc3nc(-c4cccc(F)c4)cn3nc2-c2ccc(OC)cc2)cc1,7 µM
16,CCCS(=O)(=O)Nc1ccc2nc(-c3ccccc3)c(-c3ccccc3)nc2c1,> 20 µM (inactive)
17,CCCNC(=O)Nc1ccc2nc(-c3ccccc3)c(-c3ccccc3)nc2c1,> 20 µM (inactive)
18,Fc1ccc(-c2nc3nc(-c4ccc(OC(F)(F)F)cc4)cn3nc2-c2ccc(F)cc2)cc1,15.3 µM
19,CCNC(=S)Nc1ccc2nc(-c3ccccc3)c(-c3ccccc3)nc2c1,> 20 µM (inactive)
20,O=C(Nc1ccc2nc(-c3ccccc3)c(-c3ccccc3)nc2c1)C1CC1,> 20 µM (inactive)
21,O=S(=O)(Nc1ccc2nc(-c3cccs3)c(-c3cccs3)nc2c1)C1CC1,> 20 µM (inactive)

row,Compound,EC50
1,Cc1ccc(-c2nc3nc(-c4ccc(F)cc4)cn3nc2-c2ccc(C)cc2)cc1,7.6 µM
2,O=C(Nc1ccc2nc(-c3cccs3)c(-c3cccs3)nc2c1)C1CCC1,> 20 µM (inactive)
3,CS(=O)(=O)c1ccc(-c2cn3nc(-c4ccccc4)c(-c4ccccc4)nc3n2)cc1,11.6 µM
4,O=C(Nc1ccc2nc(-c3cccs3)c(-c3cccs3)nc2c1)NC1CCCC1,> 20 µM (inactive)
5,CC(C)OC(=O)Nc1ccc2nc(-c3ccccc3)c(-c3ccccc3)nc2c1,> 20 µM (inactive)
6,CS(=O)(=O)c1ccc(-c2cn3nc(-c4ccc(F)cc4)c(-c4ccc(F)cc4)nc3n2)cc1,> 20 µM (inactive)
7,COc1ccc(-c2nc3nc(-c4ccccc4)cn3nc2-c2ccc(OC)cc2)cc1,9.2 µM
8,O=C(Nc1ccc2nc(-c3ccccc3)c(-c3ccccc3)nc2c1)OCc1ccccc1,> 20 µM (inactive)
9,CC(C)(C)C(=O)Nc1ccc2nc(-c3ccccc3)c(-c3ccccc3)nc2c1,> 20 µM (inactive)
10,COc1ccc(-c2nc3nc(-c4ccc(C)cc4)cn3nc2-c2ccc(OC)cc2)cc1,> 20 µM (inactive)
11,COc1ccc(-c2nc3nc(-c4ccc(S(C)(=O)=O)cc4)cn3nc2-c2ccc(OC)cc2)cc1,> 20 µM (inactive)
12,CCNC(=O)Nc1ccc2nc(-c3cccs3)c(-c3cccs3)nc2c1,14.3 µM
13,COc1ccc(-c2cn3nc(-c4ccc(F)cc4)c(-c4ccc(F)cc4)nc3n2)c(OC)c1,5.7 µM
14,FC(F)(F)Oc1ccc(-c2cn3nc(-c4ccccc4)c(-c4ccccc4)nc3n2)cc1,> 20 µM (inactive)
15,CCS(=O)(=O)Nc1ccc2nc(-c3ccccc3)c(-c3ccccc3)nc2c1,> 20 µM (inactive)
16,CCNC(=O)Nc1ccc2nc(-c3ccccc3)c(-c3ccccc3)nc2c1,> 20 µM (inactive)
17,COc1ccccc1-c1cn2nc(-c3ccc(C)cc3)c(-c3ccc(C)cc3)nc2n1,12.4 µM
18,COc1cccc(-c2cn3nc(-c4ccc(C)cc4)c(-c4ccc(C)cc4)nc3n2)c1,6.6 µM
19,CC(C)OC(=O)Nc1ccc2nc(-c3cccs3)c(-c3cccs3)nc2c1,> 20 µM (inactive)
